# Bridge positions count the residues as written; N and C are the ends. Ends that are not written are not given here.
# Key:
# [1] = tested on: V1R-Qpep sensor; test: FRET measurement with GPMV-V1R-Qpep sensors; assay type: biochemical; details: bicine-mediated GPMVs, 100 nM
# [2] = tested on: α1AR-Ipep sensor; details: bicine-mediated GPMVs, 100 μM
Molecule,ΔFRET level with full agonist [1],ΔFRET level with full agonist [2]
"[Arg^8]vasopressin (CYFQNCPRG-NH2; disulfide 1-6) [[Arg^8]vasopressin (AVP), full agonist of V1R]",comparable to those obtained in the other experiments described herein,
CNC[C@H](O)c1ccc(O)c(O)c1 [epinephrine],,comparable to those obtained in the other experiments described herein

# From patent US12098184B2, “G protein-coupled receptor (GPCR) ligand assay” (REGENTS OF THE UNIVERSITY OF MINNESOTA, priority 2017, dated 2024)
